In US9938322B2, “β-hairpin peptidomimetics” (priority 2013, dated 2018):
Where a SMILES comes first, the peptide text is derived from it. [ ]: non-standard residue; d: D form. Cha = N[C@@H](CC1CCCCC1)C(=O)O; Chg = N[C@H](C(=O)O)C1CCCCC1; Tle = CC(C)(C)[C@H](N)C(=O)O; dDab = NCC[C@@H](N)C(=O)O; Orn = NCCC[C@H](N)C(=O)O; Dab = NCC[C@H](N)C(=O)O; Nva = CCC[C@H](N)C(=O)O; Abu = CC[C@H](N)C(=O)O

system: human red blood cells (hRBC); assay: Hemolysis of human red blood cells; assay type: cell-based; conditions: red cells of human, 1 h, 100
Summary of the method: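 Washed fresh human erythrocytes (20% v/v, about 0.9×10^9 cells/ml final) incubated with peptide at 100 μg/ml for 1 h at 37° C with shaking. Supernatant OD540 read; hemolysis expressed relative to 2.5% Triton X-100 (100%) and PBS with 0.001% acetic acid (0%).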

Compared with `CC(C)C[C@@H]1NC(=O)[C@@H]2CCCN2C(=O)[C@H]2CCCN2C(=O)[C@H](CO)NC(=O)[C@H]([C@@H](C)O)NC(=O)[C@H](C(C)(C)C)NC(=O)[C@H](CCN)NC(=O)[C@H](Cc2c[nH]c3ccccc23)NC(=O)[C@H](CCN)NC(=O)[C@@H](CCN)NC(=O)[C@H](CCCN)NC(=O)[C@H](CCN)NC(=O)[C@H](Cc2ccc(O)cc2)NC(=O)[C@H]([C@@H](C)O)NC1=O` [compound 122] (cyclo(LTY[Dab][Orn][dDab][Dab]W[Dab][Tle]TS[dP]P)), `CC(C)C[C@@H]1NC(=O)[C@@H]2CCCN2C(=O)[C@H]2CCCN2C(=O)[C@H]([C@@H](C)O)NC(=O)[C@H](CO)NC(=O)[C@H](C(C)(C)C)NC(=O)[C@H](CCN)NC(=O)[C@H](Cc2c[nH]c3ccccc23)NC(=O)[C@H](CCN)NC(=O)[C@@H](CCN)NC(=O)[C@H](CCN)NC(=O)[C@H](CCN)NC(=O)[C@H](Cc2ccc(O)cc2)NC(=O)[C@H]([C@@H](C)O)NC1=O` [compound 124] (cyclo(LTY[Dab][Dab][dDab][Dab]W[Dab][Tle]ST[dP]P)) is higher in “Hemolysis at 100 μg/ml” value: 0% for the first, 0.5% for the second.

First: CC(C)C[C@@H]1NC(=O)[C@@H]2CCCN2C(=O)[C@H]2CCCN2C(=O)[C@H](CO)NC(=O)[C@H](CC(N)=O)NC(=O)[C@H](C(C)(C)C)NC(=O)[C@H](CCN)NC(=O)[C@H](Cc2c[nH]c3ccccc23)NC(=O)[C@H](CCN)NC(=O)[C@@H](CCN)NC(=O)[C@H](CCCN)NC(=O)[C@H](CCN)NC(=O)[C@H](Cc2ccc(O)cc2)NC(=O)[C@H](CC(=O)O)NC1=O [compound 123] (cyclo(LDY[Dab][Orn][dDab][Dab]W[Dab][Tle]NS[dP]P))
Second: CC(C)C[C@@H]1NC(=O)[C@@H]2CCCN2C(=O)[C@H]2CCCN2C(=O)[C@H](CO)NC(=O)[C@H](CO)NC(=O)[C@H](C(C)(C)C)NC(=O)[C@H](CCN)NC(=O)[C@H](Cc2c[nH]c3ccccc23)NC(=O)[C@H](CCN)NC(=O)[C@@H](CCN)NC(=O)[C@H](CCCN)NC(=O)[C@H](CCN)NC(=O)[C@H](Cc2ccc(O)cc2)NC(=O)[C@H](C)NC1=O [compound 130] (cyclo(LAY[Dab][Orn][dDab][Dab]W[Dab][Tle]SS[dP]P))
The “Hemolysis at 100 μg/ml” value of the first is lower: 0% for the first, 0.2% for the second.

Going from `CC[C@H](C)[C@@H]1NC(=O)[C@@H]2CCCN2C(=O)[C@H]2CCCN2C(=O)[C@H](CO)NC(=O)[C@H](C)NC(=O)[C@H](C(C)(C)C)NC(=O)[C@H](CCN)NC(=O)[C@H](Cc2c[nH]c3ccccc23)NC(=O)[C@H](CCN)NC(=O)[C@@H](CCN)NC(=O)[C@H](CCCN)NC(=O)[C@H](CCN)NC(=O)[C@H](Cc2ccc(O)cc2)NC(=O)[C@H](C)NC1=O` [compound 125] (cyclo(IAY[Dab][Orn][dDab][Dab]W[Dab][Tle]AS[dP]P)) to `CC[C@@H]1NC(=O)[C@H]([C@@H](C)CC)NC(=O)[C@@H]2CCCN2C(=O)[C@H]2CCCN2C(=O)[C@H](CO)NC(=O)[C@H](C)NC(=O)[C@H](C(C)(C)C)NC(=O)[C@H](CCN)NC(=O)[C@H](Cc2c[nH]c3ccccc23)NC(=O)[C@H](CCN)NC(=O)[C@@H](CCN)NC(=O)[C@H](CCCN)NC(=O)[C@H](CCN)NC(=O)[C@H](Cc2ccc(O)cc2)NC1=O` [compound 126] (cyclo(I[Abu]Y[Dab][Orn][dDab][Dab]W[Dab][Tle]AS[dP]P)), the “Hemolysis at 100 μg/ml” value rises from 0% to 0.5%.

Compared with `CC(C)C[C@@H]1NC(=O)[C@@H]2CCCN2C(=O)[C@H]2CCCN2C(=O)[C@H](CO)NC(=O)[C@H](C)NC(=O)[C@H](CC2CCCCC2)NC(=O)[C@H](CCN)NC(=O)[C@H](Cc2c[nH]c3ccccc23)NC(=O)[C@H](CCN)NC(=O)[C@@H](CCN)NC(=O)[C@H](CCCN)NC(=O)[C@H](CCN)NC(=O)[C@H](Cc2ccc(O)cc2)NC(=O)[C@H](C)NC1=O` [compound 127] (cyclo(LAY[Dab][Orn][dDab][Dab]W[Dab][Cha]AS[dP]P)), `CC(C)C[C@@H]1NC(=O)[C@@H]2CCCN2C(=O)[C@H]2CCCN2C(=O)[C@H](CO)NC(=O)[C@H](C)NC(=O)[C@H](CC2CCCCC2)NC(=O)[C@H](CCN)NC(=O)[C@H](Cc2c[nH]c3ccccc23)NC(=O)[C@H](CCN)NC(=O)[C@@H](CCN)NC(=O)[C@H](CCCCN)NC(=O)[C@H](CCN)NC(=O)[C@H](Cc2ccc(O)cc2)NC(=O)[C@H](C)NC1=O` [compound 128] (cyclo(LAY[Dab]K[dDab][Dab]W[Dab][Cha]AS[dP]P)) is higher in “Hemolysis at 100 μg/ml” value: 1% for the first, 2% for the second.

Going from `CC(C)C[C@@H]1NC(=O)[C@@H]2CCCN2C(=O)[C@H]2CCCN2C(=O)[C@H](CO)NC(=O)[C@H](C)NC(=O)[C@H](C2CCCCC2)NC(=O)[C@H](CCN)NC(=O)[C@H](Cc2c[nH]c3ccccc23)NC(=O)[C@H](CCN)NC(=O)[C@@H](CCN)NC(=O)[C@H](CCCN)NC(=O)[C@H](CCN)NC(=O)[C@H](Cc2ccc(O)cc2)NC(=O)[C@H](C)NC1=O` [compound 129] (cyclo(LAY[Dab][Orn][dDab][Dab]W[Dab][Chg]AS[dP]P)) to `CCC[C@@H]1NC(=O)[C@@H]2CCCN2C(=O)[C@H]2CCCN2C(=O)[C@H]([C@@H](C)O)NC(=O)[C@H](CO)NC(=O)[C@H](C2CCCCC2)NC(=O)[C@H](CCN)NC(=O)[C@H](Cc2c[nH]c3ccccc23)NC(=O)[C@H](CCN)NC(=O)[C@@H](CCN)NC(=O)[C@H](CCN)NC(=O)[C@H](CCN)NC(=O)[C@H](Cc2ccc(O)cc2)NC(=O)[C@H](C)NC1=O` [compound 132] (cyclo([Nva]AY[Dab][Dab][dDab][Dab]W[Dab][Chg]ST[dP]P)), the “Hemolysis at 100 μg/ml” value rises from 1% to 1.5%.

Going from `CC(C)C[C@@H]1NC(=O)[C@@H]2CCCN2C(=O)[C@H]2CCCN2C(=O)[C@H]([C@@H](C)O)NC(=O)[C@H](CO)NC(=O)[C@H](C(C)(C)C)NC(=O)[C@H](CCN)NC(=O)[C@H](Cc2c[nH]c3ccccc23)NC(=O)[C@H](CCN)NC(=O)[C@@H](CCN)NC(=O)[C@H](CCCN)NC(=O)[C@H](CCN)NC(=O)[C@H](Cc2ccc(O)cc2)NC(=O)[C@H](C)NC1=O` [compound 131] (cyclo(LAY[Dab][Orn][dDab][Dab]W[Dab][Tle]ST[dP]P)) to `CC[C@H](C)[C@@H]1NC(=O)[C@@H]2CCCN2C(=O)[C@H]2CCCN2C(=O)[C@H]([C@@H](C)O)NC(=O)[C@H]([C@@H](C)O)NC(=O)[C@H](C(C)(C)C)NC(=O)[C@H](CCN)NC(=O)[C@H](Cc2c[nH]c3ccccc23)NC(=O)[C@H](CCN)NC(=O)[C@@H](CCN)NC(=O)[C@H](CCN)NC(=O)[C@H](CCN)NC(=O)[C@H](Cc2ccc(O)cc2)NC(=O)[C@H](C)NC1=O` [compound 133] (cyclo(IAY[Dab][Dab][dDab][Dab]W[Dab][Tle]TT[dP]P)), the “Hemolysis at 100 μg/ml” value rises from 0.1% to 1%.

Compared with `CCC[C@@H]1NC(=O)[C@@H]2CCCN2C(=O)[C@H]2CCCN2C(=O)[C@H](CO)NC(=O)[C@H](C)NC(=O)[C@H](C2CCCCC2)NC(=O)[C@H](CCN)NC(=O)[C@H](Cc2c[nH]c3ccccc23)NC(=O)[C@H](CCN)NC(=O)[C@@H](CCN)NC(=O)[C@H](CCCN)NC(=O)[C@H](CCN)NC(=O)[C@H](CC2CCCCC2)NC(=O)[C@H](CO)NC1=O` [compound 134] (cyclo([Nva]S[Cha][Dab][Orn][dDab][Dab]W[Dab][Chg]AS[dP]P)), `CCC[C@@H]1NC(=O)[C@@H]2CCCN2C(=O)[C@H]2CCCN2C(=O)[C@H](CO)NC(=O)[C@H](C)NC(=O)[C@H](C2CCCCC2)NC(=O)[C@H](CCN)NC(=O)[C@H](Cc2c[nH]c3ccccc23)NC(=O)[C@H](CCN)NC(=O)[C@@H](CCN)NC(=O)[C@H](CCCN)NC(=O)[C@H](CCN)NC(=O)[C@H](C(C)(C)C)NC(=O)[C@H](CO)NC1=O` [compound 138] (cyclo([Nva]S[Tle][Dab][Orn][dDab][Dab]W[Dab][Chg]AS[dP]P)) is lower in “Hemolysis at 100 μg/ml” value: 8% for the first, 1% for the second.

Compared with `CC(C)C[C@@H]1NC(=O)[C@@H]2CCCN2C(=O)[C@H]2CCCN2C(=O)[C@H](CO)NC(=O)[C@H](C)NC(=O)[C@H](C(C)(C)C)NC(=O)[C@H](CCN)NC(=O)[C@H](Cc2c[nH]c3ccccc23)NC(=O)[C@H](CCN)NC(=O)[C@@H](CCN)NC(=O)[C@H](CCCN)NC(=O)[C@H](CCN)NC(=O)[C@H](CC2CCCCC2)NC(=O)[C@H](CO)NC1=O` [compound 135] (cyclo(LS[Cha][Dab][Orn][dDab][Dab]W[Dab][Tle]AS[dP]P)), `CC(C)C[C@@H]1NC(=O)[C@@H]2CCCN2C(=O)[C@H]2CCCN2C(=O)[C@H](CO)NC(=O)[C@H](C)NC(=O)[C@H](C2CCCCC2)NC(=O)[C@H](CCN)NC(=O)[C@H](Cc2c[nH]c3ccccc23)NC(=O)[C@H](CCN)NC(=O)[C@@H](CCN)NC(=O)[C@H](CCCN)NC(=O)[C@H](CCN)NC(=O)[C@H](C(C)(C)C)NC(=O)[C@H](CO)NC1=O` [compound 137] (cyclo(LS[Tle][Dab][Orn][dDab][Dab]W[Dab][Chg]AS[dP]P)) is lower in “Hemolysis at 100 μg/ml” value: 5% for the first, 4% for the second.

`CC[C@H](C)[C@@H]1NC(=O)[C@@H]2CCCN2C(=O)[C@H]2CCCN2C(=O)[C@H](CO)NC(=O)[C@H](C)NC(=O)[C@H](C2CCCCC2)NC(=O)[C@H](CCN)NC(=O)[C@H](Cc2c[nH]c3ccccc23)NC(=O)[C@H](CCN)NC(=O)[C@@H](CCN)NC(=O)[C@H](CCCN)NC(=O)[C@H](CCN)NC(=O)[C@H](C(C)(C)C)NC(=O)[C@H](CO)NC1=O` [compound 136] (cyclo(IS[Tle][Dab][Orn][dDab][Dab]W[Dab][Chg]AS[dP]P)) and `CCC[C@@H]1NC(=O)[C@@H]2CCCN2C(=O)[C@H]2CCCN2C(=O)[C@H](CO)NC(=O)[C@H](C)NC(=O)[C@H](CC2CCCCC2)NC(=O)[C@H](CCN)NC(=O)[C@H](Cc2c[nH]c3ccccc23)NC(=O)[C@H](CCN)NC(=O)[C@@H](CCN)NC(=O)[C@H](CCCCN)NC(=O)[C@H](CCN)NC(=O)[C@H](C(C)(C)C)NC(=O)[C@H](CO)NC1=O` [compound 139] (cyclo([Nva]S[Tle][Dab]K[dDab][Dab]W[Dab][Cha]AS[dP]P)) are the same in “Hemolysis at 100 μg/ml” value: 5% for the first, 5% for the second.

In the case of `CC(C)C[C@@H]1NC(=O)[C@@H]2CCCN2C(=O)[C@H]2CCCN2C(=O)[C@H](CO)NC(=O)[C@H](C)NC(=O)[C@H](C(C)C)NC(=O)[C@H](CCN)NC(=O)[C@H](Cc2c[nH]c3ccccc23)NC(=O)[C@H](CCN)NC(=O)[C@@H](CCN)NC(=O)[C@H](CCCN)NC(=O)[C@H](CCN)NC(=O)[C@H](CC2CCCCC2)NC(=O)[C@H](CO)NC1=O` [compound 140] (cyclo(LS[Cha][Dab][Orn][dDab][Dab]W[Dab]VAS[dP]P)), the “Hemolysis at 100 μg/ml” value is reported as 2%.
